Test results from US12398154B2, “Azaquinazoline pan-KRas inhibitors” (Mirati Therapeutics, Inc., priority 2020, dated 2025).

How the values were obtained:
Assay in all cases: biochemical
[1] = biological target: KRas G12V (Homo sapiens, UniProt P01116, G12V);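 note: KRas binding measured by TR-FRET displacement at room temperature, IC50 fitted from percent of control values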
Experimental: (§1) The ability of a compound to bind to KRas was measured using a TR-FRET displacement assay. […] After a 60-minute incubation at room temperature, the reaction was measured using a BMG LABTECH CLARIO star Plus via TR-FRET. […] The POC values were fit to a 4-parameter IC50 equation and the IC50 value reported.

[2] = biological target: KRas G12R (Homo sapiens, UniProt P01116, G12R);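 note: TR-FRET displacement assay of compound binding to KRas, read after one hour at room temperature, potency from a four-parameter fit of percent-of-control values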
KRas G12R, sequence (P01116 1-169 isoform P01116-2 G12R): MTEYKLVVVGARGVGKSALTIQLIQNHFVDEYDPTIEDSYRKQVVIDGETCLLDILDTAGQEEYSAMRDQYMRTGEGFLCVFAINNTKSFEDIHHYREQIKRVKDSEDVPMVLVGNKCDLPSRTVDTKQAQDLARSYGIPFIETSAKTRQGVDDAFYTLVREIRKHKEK
Experimental: as §1

[3] = biological target: KRas G12D (Homo sapiens, UniProt P01116, G12D);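 note: TR-FRET displacement binding assay on KRas, read after a one-hour incubation at room temperature, IC50 fitted from percent-of-control values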
KRas G12D, sequence (P01116 1-169 isoform P01116-2 G12D): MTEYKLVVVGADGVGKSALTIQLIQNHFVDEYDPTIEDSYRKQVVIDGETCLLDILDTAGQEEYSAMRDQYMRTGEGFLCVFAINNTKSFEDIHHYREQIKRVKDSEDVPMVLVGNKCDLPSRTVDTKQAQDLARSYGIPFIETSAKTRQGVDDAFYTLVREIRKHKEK
Experimental: as §1

KRas G12V, sequence (P01116 1-169 isoform P01116-2 G12V): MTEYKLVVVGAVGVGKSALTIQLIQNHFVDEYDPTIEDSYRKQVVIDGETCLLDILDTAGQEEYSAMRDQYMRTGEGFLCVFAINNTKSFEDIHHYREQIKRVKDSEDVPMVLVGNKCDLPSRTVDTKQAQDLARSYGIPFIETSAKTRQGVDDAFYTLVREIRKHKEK

Row | IC50 [1] | IC50 [2] | IC50 [3] | SMILES
1 | 22.1 µM | 11.3 µM | 6.41 µM | Fc1c(-c2cccc3cccc(F)c23)ncc2c(N3CCCc4ncccc4C3)nc(OCC34CCCN3CCC4)nc12 [Example 246, 6-(8-fluoro-7-(8-fluoronaphthalen-1-yl)-2-((hexahydro-1H-pyrrolizin-7a-yl)methoxy)pyrido[4,3-d]pyrimidin-4-yl)-6,7,8,9-tetrahydro-5H-pyrido[3,2-c]azepine]
2 | 9.78 µM | 10.5 µM | 6.81 µM | NS(=O)(=O)OC1CCCN(c2nc(OCC34CCCN3CCC4)nc3c(F)c(-c4cccc5cccc(F)c45)ncc23)C1 (stereo not drawn) [Example 248, 1-(8-fluoro-7-(8-fluoronaphthalen-1-yl)-2-((tetrahydro-1H-pyrrolizin-7a(5H)-yl)methoxy)pyrido[4,3-d]pyrimidin-4-yl)piperidin-3-yl sulfamate]
3 | 10.8 µM | 7.91 µM | 2.84 µM | Cc1cc2n(n1)CCCN(c1nc(OCC34CCCN3CCC4)nc3c(F)c(-c4cccc5cccc(F)c45)ncc13)C2 [Example 254, 8-fluoro-7-(8-fluoronaphthalen-1-yl)-2-((hexahydro-1H-pyrrolizin-7a-yl)methoxy)-4-(2-methyl-7,8-dihydro-4H-pyrazolo[1,5-a][1,4]diazepin-5(6H)-yl)pyrido[4,3-d]pyrimidine]
4 | 11 µM | 15.1 µM | 6.23 µM | OC1CN(c2nc(OCC34CCCN3CCC4)nc3c(F)c(-c4cccc5cccc(F)c45)ncc23)Cc2ccnn2C1 (stereo not drawn) [Example 255, 5-(8-fluoro-7-(8-fluoronaphthalen-1-yl)-2-((hexahydro-1H-pyrrolizin-7a-yl)methoxy)pyrido[4,3-d]pyrimidin-4-yl)-5,6,7,8-tetrahydro-4H-pyrazolo[1,5-a][1,4]diazepin-7-ol]
5 | 13.6 µM | 9.86 µM | 8.16 µM | CN(C)c1cc2n(n1)CCCN(c1nc(OCC34CCCN3CCC4)nc3c(F)c(-c4cccc5cccc(F)c45)ncc13)C2 [Example 264, 5-(8-fluoro-7-(8-fluoronaphthalen-1-yl)-2-((hexahydro-1H-pyrrolizin-7a-yl)methoxy)pyrido[4,3-d]pyrimidin-4-yl)-N,N-dimethyl-5,6,7,8-tetrahydro-4H-pyrazolo[1,5-a][1,4]diazepin-2-amine]
6 | 5.25 µM | 13.9 µM | 6.06 µM | O=C1CC2(CCCCN(c3nc(OCC45CCCN4CCC5)nc4c(F)c(-c5cccc6cccc(F)c56)ncc34)C2)N1 (stereo not drawn) [Example 266, 6-(8-fluoro-7-(8-fluoronaphthalen-1-yl)-2-((hexahydro-1H-pyrrolizin-7a-yl)methoxy)pyrido[4,3-d]pyrimidin-4-yl)-1,6-diazaspiro[3.6]decan-2-one]
7 | 6.44 µM | 8.88 µM | 11.3 µM | OC[C@@H]1CCCN(c2nc(OCC34CCCN3CCC4)nc3c(F)c(-c4cccc5cccc(F)c45)ncc23)C1 [Example 268, (R)-(1-(8-fluoro-7-(8-fluoronaphthalen-1-yl)-2-((hexahydro-1H-pyrrolizin-7a-yl)methoxy)pyrido[4,3-d]pyrimidin-4-yl)piperidin-3-yl)methanol]
8 | 3.39 µM | 3.62 µM | 34.3 µM | O=S1(=O)CCC(Nc2nc(OCC34CCCN3CCC4)nc3c(F)c(-c4cccc5cccc(F)c45)ncc23)C1 (stereo not drawn) [Example 279, 3-((8-fluoro-7-(8-fluoronaphthalen-1-yl)-2-((hexahydro-1H-pyrrolizin-7a-yl)methoxy)pyrido[4,3-d]pyrimidin-4-yl)amino)tetrahydrothiophene 1,1-dioxide]
9 | 0.699 µM | 0.738 µM | 1.48 µM | CCc1cccc2cccc(-c3ncc4c(N5CCCOCC5)nc(OCC56CCCN5CCC6)nc4c3F)c12 [Example 334, 4-(7-(8-ethylnaphthalen-1-yl)-8-fluoro-2-((hexahydro-1H-pyrrolizin-7a-yl)methoxy)pyrido[4,3-d]pyrimidin-4-yl)-1,4-oxazepane]
10 | ≥ 100 µM | 84.5 µM | 7.83 µM | O=C1CC2CCN(c3nc(OCC45CCCN4CCC5)nc4c(F)c(-c5cccc6cccc(F)c56)ncc34)CC2C(=O)N1 (stereo not drawn) [Example 335, 7-(8-fluoro-7-(8-fluoronaphthalen-1-yl)-2-((hexahydro-1H-pyrrolizin-7a-yl)methoxy)pyrido[4,3-d]pyrimidin-4-yl)hexahydro-2,7-naphthyridine-1,3(2H,4H)-dione]
11 | 0.008 µM | 0.009 µM | 0.044 µM | CCc1c(F)ccc2cc(O)cc(-c3ncc4c(NCCC5CCNC5=O)nc(OC[C@@]56CCCN5C[C@H](F)C6)nc4c3F)c12 (stereo partly drawn) [Example 375, 3-(2-((7-(8-ethyl-7-fluoro-3-hydroxynaphthalen-1-yl)-8-fluoro-2-(((2R,7aS)-2-fluorohexahydro-1H-pyrrolizin-7a-yl)methoxy)pyrido[4,3-d]pyrimidin-4-yl)amino)ethyl)pyrrolidin-2-one]

Further lines, the compound ahead of its results:

Row | SMILES | IC50 [1] | IC50 [2] | IC50 [3]
12 | CC1(O)CCCN(c2nc(OCC34CCCN3CCC4)nc3c(F)c(-c4cccc5scnc45)ncc23)C1 (stereo not drawn) [Example 68, 1-(7-(benzo[d]thiazol-4-yl)-8-fluoro-2-((hexahydro-1H-pyrrolizin-7a-yl)methoxy)pyrido[4,3-d]pyrimidin-4-yl)-3-methylpiperidin-3-ol] | 17 µM | 27.6 µM | 11.6 µM
13 | CC1(O)CCCN(c2nc(OCC34CCCN3CCC4)nc3c(F)c(-c4cccc5ccccc45)ncc23)C1 (stereo not drawn) [Example 69, 1-(8-fluoro-2-((hexahydro-1H-pyrrolizin-7a-yl)methoxy)-7-(naphthalen-1-yl)pyrido[4,3-d]pyrimidin-4-yl)-3-methylpiperidin-3-ol] | 2.73 µM | 4.17 µM | 2.09 µM
14 | O=C1NCCC2(CCCN(c3nc(OCC45CCCN4CCC5)nc4c(F)c(-c5cccc6cccc(F)c56)ncc34)C2)N1 (stereo not drawn) [Example 72, 8-(8-fluoro-7-(8-fluoronaphthalen-1-yl)-2-((tetrahydro-1H-pyrrolizin-7a(5H)-yl)methoxy)pyrido[4,3-d]pyrimidin-4-yl)-1,3,8-triazaspiro[5.5]undecan-2-one] | 10.8 µM | 14 µM | 14 µM
15 | OC1CC2CC(C1)N(c1nc(OCC34CCCN3CCC4)nc3c(F)c(-c4cccc5cccc(F)c45)ncc13)C2 (stereo not drawn) [Example 76, 6-(8-fluoro-7-(8-fluoronaphthalen-1-yl)-2-((hexahydro-1H-pyrrolizin-7a-yl)methoxy)pyrido[4,3-d]pyrimidin-4-yl)-6-azabicyclo[3.2.1]octan-3-ol] | 3.15 µM | 8.87 µM | 15.5 µM
16 | CN(Cc1cccnc1N)c1nc(OCC23CCCN2CCC3)nc2c(F)c(-c3cccc4cccc(F)c34)ncc12 [Example 79, N-((2-aminopyridin-3-yl)methyl)-8-fluoro-7-(8-fluoronaphthalen-1-yl)-N-methyl-2-((tetrahydro-1H-pyrrolizin-7a(5H)-yl)methoxy)pyrido[4,3-d]pyrimidin-4-amine] | 0.539 µM | 0.65 µM | 15.5 µM
17 | Fc1c(-c2cccc3cccc(Cl)c23)ncc2c(N3CCCC(c4c[nH]nn4)C3)nc(OCC34CCCN3CCC4)nc12 (stereo not drawn) [Example 108, 4-(3-(1H-1,2,3-triazol-4-yl)piperidin-1-yl)-7-(8-chloronaphthalen-1-yl)-8-fluoro-2-((tetrahydro-1H-pyrrolizin-7a(5H)-yl)methoxy)pyrido[4,3-d]pyrimidine] | 8.1 µM | 4.19 µM | 19.7 µM
18 | CC1(O)CCCN(c2nc(OCC34CCCN3CCC4)nc3c(F)c(-c4cc(O)cc5ccccc45)ncc23)C1 (stereo not drawn) [Example 151] | 0.008 µM | 0.009 µM | 0.012 µM
19 | CCc1c(F)ccc2cc(O)cc(-c3ncc4c(N(C)Cc5cn[nH]c5)nc(OC[C@@]56CCCN5C[C@H](F)C6)nc4c3F)c12 [Example 163, 4-(4-(((1H-pyrazol-4-yl)methyl)(methyl)amino)-8-fluoro-2-(((2R,7aS)-2-fluorohexahydro-1H-pyrrolizin-7a-yl)methoxy)pyrido[4,3-d]pyrimidin-7-yl)-5-ethyl-6-fluoronaphthalen-2-ol] | 0.014 µM | 0.017 µM | 0.095 µM
20 | CN1CCC[C@H]1COc1nc(N2CCOCC2)c2cnc(-c3cc(O)cc4ccccc34)c(F)c2n1 [Example 195, (S)-4-(8-fluoro-2-((1-methylpyrrolidin-2-yl)methoxy)-4-morpholinopyrido[4,3-d]pyrimidin-7-yl)naphthalen-2-ol] | 4.91 µM | 1.71 µM | 16.6 µM
21 | CN(CCC(N)=O)c1nc(OCC23CCCN2CCC3)nc2c(F)c(-c3cccc4cccc(F)c34)ncc12 [Example 226, 3-((8-fluoro-7-(8-fluoronaphthalen-1-yl)-2-((hexahydro-1H-pyrrolizin-7a-yl)methoxy)pyrido[4,3-d]pyrimidin-4-yl)(methyl)amino)propanamide] | 14.1 µM | 51.9 µM | 6.07 µM
22 | Nc1n[nH]c(CCNc2nc(OCC34CCCN3CCC4)nc3c(F)c(-c4cccc5cccc(F)c45)ncc23)n1 [Example 238, N-(2-(3-amino-1H-1,2,4-triazol-5-yl)ethyl)-8-fluoro-7-(8-fluoronaphthalen-1-yl)-2-((hexahydro-1H-pyrrolizin-7a-yl)methoxy)pyrido[4,3-d]pyrimidin-4-amine] | 19.3 µM | 9.18 µM | ≥ 100 µM
23 | NC(=O)NC1CCCN(c2nc(OCC34CCCN3CCC4)nc3c(F)c(-c4cccc5cccc(F)c45)ncc23)C1 (stereo not drawn) [Example 241, 1-(1-(8-fluoro-7-(8-fluoronaphthalen-1-yl)-2-((hexahydro-1H-pyrrolizin-7a-yl)methoxy)pyrido[4,3-d]pyrimidin-4-yl)piperidin-3-yl)urea] | 13.6 µM | 8.62 µM | 17.2 µM
24 | Fc1c(-c2cccc3cccc(F)c23)ncc2c(N3CCCn4nccc4C3)nc(OCC34CCCN3CCC4)nc12 [Example 245, 4-(7,8-dihydro-4H-pyrazolo[1,5-a][1,4]diazepin-5(6H)-yl)-8-fluoro-7-(8-fluoronaphthalen-1-yl)-2-((hexahydro-1H-pyrrolizin-7a-yl)methoxy)pyrido[4,3-d]pyrimidine] | 11.7 µM | 9.83 µM | 2.99 µM
